Laboratory results as given in patent US7816345B2, “Phosphorus-containing prodrugs” (Metabasis Therapeutics, Inc., priority 1999, dated 2010).
One block for each compound: values may come before it.

Experiments:
[1] = tested on: glucose production in isolated rat hepatocytes; experiment: Inhibition of glucose production in rat hepatocytes (Example I); type: cell-based; conditions: for IC50: lactate/pyruvate as substrates, 1 hour
Protocol: Methods: Isolated rat hepatocytes were prepared from fasted Sprague Dawley rats (250-300 g) as described in Example G. Hepatocytes (75 mg wet weight/ml) were incubated in 1 ml Krebs bicarbonate buffer containing 10 mM glucose, and 1 mg/ml BSA. Incubations were carried out in a 95% oxygen, 5% carbon dioxide atmosphere in closed, 50-ml Falcon tubes submerged in a rapidly shaking water bath (37° C.). After 10 minutes of equilibration, lactate and pyruvate were added to 10 mM and 1 mM concentrations, respectively. Addition of these gluconeogenic substrates was immediately followed by the addition of test compound to concentrations ranging from 1-100 μM. After 1 hour, an aliquot (0.25 ml) was removed, and transferred to an Eppendorf tube and centrifuged. The resulting supernatant (50 μl) was then assayed for glucose content using a Glucose Oxidase kit (Sigma Chemical Co.) as per the manufacturer's instructions.

mouse = experiment: Byproduct toxicity testing in vivo (Example N)
Protocol: Plasma samples are subjected to a standard chemistry panel in which markers of liver function are evaluated.

[2] = Chemical stability in potassium phosphate buffers (Example A); type: physicochemical; conditions: pH 7.0 potassium phosphate buffer, room temperature, 12-hour incubation
Protocol: Methods: Aliquots of a 10 μg/mL solution of Compound 1.3 in potassium phosphate buffers at pH 3 and 7 (room temperature) were sampled hourly for 12 hours. Samples were analyzed by reverse phase HPLC with use of a Beckman Ultrasphere C8 column (4.6×250 mm). The column was equilibrated and eluted with a gradient from 50 mM sodium phosphate pH 5.5 to 80% acetonitrile at a flow rate of 1.0 mL/min. Detection was at 254 nm. Under these conditions, Compound 1.3 was separated from 2-Amino-5-isobutyl-4-[2-(5-phosphonomonoamide)furanyl]thiazole, and from 2-Amino-5-isobutyl-4-(2-furanyl)thiazole (retention times=17, 15.8, and 15.6 min., respectively).

FBPase = molecular target: T1, FBPase (Homo sapiens, UniProt P09467); experiment: FBPase inhibition in vitro; type: biochemical
T1 sequence (P09467 1-338): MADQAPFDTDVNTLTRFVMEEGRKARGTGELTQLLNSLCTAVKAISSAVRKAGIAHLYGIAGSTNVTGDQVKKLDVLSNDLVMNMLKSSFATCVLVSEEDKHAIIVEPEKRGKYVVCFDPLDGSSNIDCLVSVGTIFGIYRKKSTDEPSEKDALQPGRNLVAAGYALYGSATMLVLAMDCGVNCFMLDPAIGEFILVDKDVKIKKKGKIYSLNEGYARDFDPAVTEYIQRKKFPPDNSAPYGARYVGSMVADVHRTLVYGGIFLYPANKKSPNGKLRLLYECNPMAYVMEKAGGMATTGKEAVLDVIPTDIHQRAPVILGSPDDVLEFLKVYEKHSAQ

human recombinant CYP3A4 = molecular target: T2, human recombinant CYP3A4 (Homo sapiens, UniProt P08684); experiment: Activation by recombinant CYP3A4 (Example F); type: in vitro ADME; conditions: microsomes from baculovirus-infected insect cells co-expressing CYP3A4 and cytochrome p450 reductase
T2 construct: purchased Panvera Corp., Madison, Wis; host or cells: baculovirus-infected insect cells (microsomes)
T2 sequence (P08684 2-503): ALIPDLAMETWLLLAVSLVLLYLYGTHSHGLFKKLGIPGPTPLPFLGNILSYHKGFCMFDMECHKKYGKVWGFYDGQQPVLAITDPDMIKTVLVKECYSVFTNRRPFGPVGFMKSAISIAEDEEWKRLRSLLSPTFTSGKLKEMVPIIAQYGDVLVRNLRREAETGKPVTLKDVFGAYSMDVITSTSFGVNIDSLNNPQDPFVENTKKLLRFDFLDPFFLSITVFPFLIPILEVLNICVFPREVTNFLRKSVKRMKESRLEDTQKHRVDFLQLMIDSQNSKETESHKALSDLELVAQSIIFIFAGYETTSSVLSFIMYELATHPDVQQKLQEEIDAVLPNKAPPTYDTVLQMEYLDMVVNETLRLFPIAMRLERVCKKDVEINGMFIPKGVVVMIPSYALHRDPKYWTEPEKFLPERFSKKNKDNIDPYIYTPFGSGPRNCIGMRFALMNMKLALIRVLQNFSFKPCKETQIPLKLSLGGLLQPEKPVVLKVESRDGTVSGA
Protocol: Activation of 1.3 was evaluated in reactions containing microsomes from baculovirus-infected insect cells co-expressing human recombinant CYP3A4 and cytochrome p450 reductase (Panvera Corp., Madison, Wis.).
Methods: Reaction mixture composition was similar to that described in Example D. Reactions were terminated by addition of methanol to a final concentration of 60% and products were analyzed by HPLC as described in Example A.

[3] = tested on: hepatocytes isolated from rats in which CYP3A4 expression was induced; experiment: Activation in hepatocytes from dexamethasone-induced rats (Example J); type: cell-based, rat; conditions: two hours of incubation
Protocol: Methods: Hepatocytes were prepared from fed, dexamethasone-induced Sprague-Dawley rats (300 g) according to the procedure of Berry and Friend (Berry, M. N., Friend, D. S. J. Cell Biol. 43, 506-520 (1969)) as modified by Groen (Groen, A. K. et al. Eur J. Biochem 122, 87-93 (1982)). Hepatocytes (62 mg wet weight/ml) were incubated in 2 ml Krebs bicarbonate buffer containing 10 mM glucose, and 1 mg/ml BSA. Incubations were carried out in a 95% oxygen, 5% carbon dioxide atmosphere in closed, 50-ml Falcon tubes submerged in a rapidly shaking water bath (37° C.). 3.1 and 3.2 were dissolved in methanol to yield 25 mM stock solutions, and then diluted into the cell suspension to yield a final concentration of 250 μM. Two hours following administration, aliquots of the cell suspension were removed and spun through a silicon/mineral oil layer into 10% perchloric acid. The cell extracts in the acid layers were neutralized by the addition of 0.3 volumes of 3M KOH/3M KHCO3, and the extract was then centrifuged, filtered (0.2 micron) and loaded onto an anion exchange HPLC column equilibrated with 70% A (10 mM ammonium phosphate pH 3.5, 6% ETOH) and 30% B (1 M ammonium phosphate pH 3.5, 6% ETOH). […] Detection was by uv absorbance at 254 nm. Peak areas were quantified by comparison of peak areas to authentic standards spiked into naive hepatocyte extracts. […]

rat hepatocytes = experiment: Activation in isolated rat hepatocytes, intracellular triphosphate generation (Examples G, H); type: cell-based; conditions: 250 μM, two hours of incubation
Protocol: Methods: Hepatocytes were prepared from fed, dexamethasone-induced Sprague-Dawley rats (300 g) according to the procedure of Berry and Friend (Berry, M. N., Friend, D. S. J. Cell Biol. 43, 506-520 (1969)) as modified by Groen (Groen, A. K. et al. Eur J. Biochem 122, 87-93 (1982)). Hepatocytes (62 mg wet weight/ml) were incubated in 2 ml Krebs bicarbonate buffer containing 10 mM glucose, and 1 mg/ml BSA. Incubations were carried out in a 95% oxygen, 5% carbon dioxide atmosphere in closed, 50-ml Falcon tubes submerged in a rapidly shaking water bath (37° C.). 3.1 and 3.2 were dissolved in methanol to yield 25 mM stock solutions, and then diluted into the cell suspension to yield a final concentration of 250 μM. Two hours following administration, aliquots of the cell suspension were removed and spun through a silicon/mineral oil layer into 10% perchloric acid. […] Detection was by uv absorbance at 254 nm. Peak areas were quantified by comparison of peak areas to authentic standards spiked into naive hepatocyte extracts.
Methods: 3.2 and acyclovir were evaluated in isolated rat hepatocytes at 250 μM as described in Example G.

[4] = tested on: P450 isozymes (CYP3A4, CYP1A2, CYP2C9) in human microsomal protein; conditions: 0-100 μM inhibitor, 250 μM prodrug, 37° C.
Protocol: Prodrugs are evaluated for human microsome-catalyzed conversion to MPO2—(NHR^6−) in the absence and presence of specific inhibitors of three major P450 isozymes: ketoconazole (CYP3A4), furafylline (CYP1A2), and sulfaphenazole CYP2C9).
Methods: Reactions (0.5 ml @37° C.) consist of 0.2 M KH2PO4, 13 mM glucose-6-phosphate, 2.2 mM NADP+, 1 unit of glucose-6-phosphate dehydrogenase, 0-2.5 mg/ml human microsomal protein (In Vitro Technologies, Inc.), 250 μM prodrug, and 0-100 μM P450 isozyme inhibitor. Reactions are stopped by addition of methanol to a concentration of 60%, and filtered ([…] filter). MPO2—(NHR^6−) is quantified by standard reverse phase, ion-pairing, or ion exchange HPLC methods. Eluted peaks are quantified relative to authentic standards of known concentration.

rat embryos in culture = conditions: cited from earlier work

SMILES: CC(C)Cc1sc(N)nc1-c1ccco1 [2-Amino-5-isobutyl-4-(2-furanyl)thiazole]
IC50 ([1]; Rattus norvegicus, Hepatocyte): 2.5 µM

SMILES: CC(=O)Nc1ccc(O)cc1 [Acetaminophen]
reduction of hepatic glutathione (mouse; 50, 250 and 500 mg/kg): dose-dependent reduction
depletion of hepatic glutathione (mouse; highest dose): > 80%

stability [2]: fully stable
inhibition of FBPase in vitro (FBPase): not an inhibitor
rate of generation of 2-Amino-5-isobutyl-4-[2-(5-phosphonomonoamide)furanyl]thiazole (human recombinant CYP3A4): 4.2 nmoles/min./nmole CYP3A4
SMILES: CC(C)Cc1sc(N)nc1-c1ccc(P2(=O)NCCC(c3ccccc3)O2)o1 (centres unmarked) [Compound 1.3, 2-Amino-5-isobutyl-4-{2-[5-(1-phenyl-1,3-propyl)phosphoramido]furanyl}thiazole]
IC50 [1]: 8.5 µM
lower potency relative to 2-Amino-5-isobutyl-4-(2-furanyl)thiazole ([1]; ratio of IC50's for glucose production): ~3 fold

SMILES: CSc1sc(N)nc1-c1ccc(P2(=O)OC(c3ccccc3)CCN2C)o1 (centres unmarked) [Compound 1.7, 2-Amino-5-methylthio-4-{2-[5-(N-methyl-1-phenyl-1,3-propyl)phosphoramido]furanyl}thiazole]
levels of 2-Amino-5-methylthio-4-[2-(5 phosphono)furanyl]thiazole formed [3]: 20.5 ± 3 nmol/g

SMILES: Nc1ncnc2c1ncn2[C@@H]1O[C@H](COP2(=O)NC(c3ccccc3)CCO2)[C@@H](O)[C@@H]1O (stereo partly drawn) [Compound 3.1, 5′-O-(2-oxo-4-Phenyl-1,3,2-oxazaphosphorin-2-yl)-9-β-D-arabinofuranosyl-adenine]
Intracellular concentration of nucleoside triphosphate (AraATP from 3.1, acyclovir-triphosphate from 3.2) (rat hepatocytes): 15.7 ± 16 nmol/g

SMILES: CC(=O)N1CCN(c2ccc(OCC3COC(Cn4ccnc4)(c4ccc(Cl)cc4Cl)O3)cc2)CC1 (centres unmarked) [Ketoconazole]
inhibition of formation of MPO2—(NHR^6−) from prodrug [4]: inhibits the formation of MPO2—(NHR^6−) in a dose-dependent fashion

SMILES: C=CC(=O)c1ccccc1 [Phenyl vinyl ketone]
teratogenic activity (rat embryos in culture): lacks teratogenic activity

SMILES: Cc1nc2c([nH]1)c(=O)n(C)c(=O)n2Cc1ccco1 [furafylline]
inhibition of formation of MPO2—(NHR^6−) from prodrug [4]: no significant inhibition

inhibition of formation of MPO2—(NHR^6−) from prodrug [4]: no significant inhibition
SMILES: Nc1ccc(S(=O)(=O)Nc2ccnn2-c2ccccc2)cc1 [sulfaphenazole]
